These results are taken from patent publication US20250129073A1, “INHIBITOR OF RECEPTOR-INTERACTING PROTEIN KINASE 1, AND PREPARATION METHOD AND USE THEREFOR” (CHINA PHARMACEUTICAL UNIVERSITY, priority 2021, published 2025).

pEC50, pIC50: −log10 of the molar value.

For test [1], the target named is RIPK1 kinase (Homo sapiens (Human), UniProt Q13546). Description: RIPK1 kinase inhibitory assay (ADP-Glo). Conditions: for inhibition at 10 µM: 10 μM compound, read-out: Inhibition rate of RIPK1 at 10 μM (%). It is filed as biochemical. The method, then: Materials and Instruments: ADP-Glo kinase kit (purchased from Promega), RIPK1 GST-Th-Tag (purchased from Bps Bioscience), MBP substrate (purchased from Millipore), nunc 384-well plate, ATP fluorescence analyzer Paradigm detection platform (purchased from Beckman coulter)
The compounds were diluted in DMSO and configured into a solution with a final concentration of 10 mM; Dilute RIP1 kinase from 140 ng/μL to 20 ng/μL for use. Dilute 10 mM of ATP to 100 μM for later use; Dilute 5 mg/mL of MBP to 1 mg/mL for later use. Appropriate embodiments were added into the well of the 384-well plate, 10 μl […] ATP was evenly mixed with 1 μl 1 mg/mL MB P, the mixed solution was added to the well, and 2 μL […] RIP1 kinase was added to the hole, and then incubated at room temperature for 1 h. Subsequently, 5 μL ADP-Glo reagent was added to each well and incubated at room temperature for 40 min. Then, 10 μL ADP-Glo detection reagent was added to each well and incubated at room temperature for 30 min. Finally, the RLU value (relative light unit) of each well was measured by ATP fluorometer, and each sample was repeated twice. Inhibition rate=(RLU value of blank group−RLU value of drug administration group)/RLU value of blank group×100%.

Test [2] deals with U937 cells. The test can be described thus: Cell anti-necroptosis activity assay (LPS + Z-VAD-FMK, CCK8). Conditions: Homo sapiens, U-937; PMA-differentiated U937, LPS 100 ng/ml + Z-VAD-FMK 20 μM, 24 h; read-out: EC50 of inhibition of necroptosis. The test is classed as cell-based. Here is the method: Materials: U937 cell line (human myeloid leukemia cells), RPMI 1640 medium (purchased from Gibco, USA), penicillin-streptomycin double antibody (purchased from Gibco, USA), fetal bovine serum (purchased from genetic, USA), tetradecanoylphorbol acetate (purchased from biyuntian Biotechnology Co., Ltd.), CCK8 cell proliferation detection kit (purchased from biyuntian Biotechnology Co., Ltd), Z-VAD-FMK (from APExBIO, USA) and LPS (from Sigma, USA).
U937 cells were cultured in RPMI 1640 containing 10% heat inactivated fetal bovine serum and 1% penicillin-streptomycin in a constant temperature cell incubator at 37° C. and 5% CO2, and subcultured every 1-2 days. Human monocytic cell line U937 cells could be induced to differentiate into mature monocytes/macrophages after stimulation with tetradecanoylphorbol acetate (PMA). The cells in the logarithmic growth phase were seeded in 96 well plates at a density of 4×10^4 cells/well and cultured. PMA 100 ng/ml was added for 24 h, and then the fresh medium was changed. The necroptosis model was constructed by stimulation of LPS and caspase inhibitor Z-VAD-FMK. In the experimental groups, LPS (100 ng/ml) was added for 1 hour, and then the solvent control (DMSO) or different concentrations of compounds to be tested (30 μM, 10 μM, 3 μM, 1 μM, 300 nM, 100 nM, 30 nM 7 concentrations in total) for 1 h, and then the experimental groups were treated with caspase inhibitor Z-VAD-FMK (20 μM). The cell viability was detected after 24 h of culture. The control groups were not treated with LPS, drugs and Z-VAD-FMK. No cells were added to the blank hole, only the culture medium. Each group is set with 4 parallel. CCK8 cell proliferation assay kit was used to detect the cell viability and survival rate, and the operation was carried out according to the kit instructions. The cell supernatant was added with 10 μL CCK8 detection reagent, and the cell absorbance (450 nm) was detected by a microplate reader after 0.5 h. Calculate the cell death rate (%)=(average absorbance of control well−average absorbance of experimental group)/(average absorbance of control well−average absorbance of the blank well)×100. Finally, the half effective concentration (EC50) of the drug was calculated by GraphPad Prism 7.0® software.

Test [3] deals with rat model of ischemic stroke (MCAO). The test can be described thus: Rat MCAO cerebral ischemia/reperfusion model of ischemic stroke. It is filed as in vivo. Particulars: tMCAO rats. The method, then: Animals: SPF-grade male Sprague Dawley (SD) rats (purchased from Beijing Weitonglihua Experimental Animal Technology Co., Ltd.). Rats were fed with a free diet, 12 h: 12 h circadian rhythm.
Material: 2,3,5-Triphenyltetrazolium chloride (purchased from Beijing Solebo Technology Co., Ltd.), N,N-Dimethylacetamide (purchased from Shanghai Aladdin Biochemical Technology Co., Ltd.), castor oil polyoxyethylene ether (purchased from Shanghai McLean Biochemical Technology Co., Ltd.), sodium chloride (purchased from Bioengineering (Shanghai) Co., Ltd.), isoflurane (purchased from Shenzhen ruiwode Life Technology Co., Ltd.), and Sodium dihydrogen phosphate (purchased from Sinopharm group), disodium hydrogen phosphate (purchased from Sinopharm group), paraformaldehyde (purchased from biotechnology (Shanghai) Co., Ltd.) and thread bolt (purchased from Beijing Xinong Technology Co., Ltd.).
Methods: A rat model of ischemic stroke was established by middle cerebral artery occlusion (MCAO) of cerebral ischemia/reperfusion: Healthy male SD rats (weighing 260±40 g) were anesthetized with 5% isoflurane and maintained with 1.5%-2% isoflurane. The rats were fixed in the supine position, and the right common carotid artery, internal carotid artery and external carotid artery were separated through the median neck incision and threaded for standby. The proximal end of the common carotid artery and the external carotid artery were ligated, and the internal carotid artery was clamped with an artery clamp. The suture plug was cut and inserted at about 0.5 cm from the bifurcation of the common carotid artery. The artery clamp was released, and the suture plug was delivered until the blood flow of the middle cerebral artery was blocked. After 60 minutes of ischemia, the suture plug was removed to restore blood flow. The rectal temperature was maintained at 37±0.5° C. during the operation. After 48 hours of ischemia/reperfusion, the neurological function was evaluated by modified neurological severity score (MNSs). The cerebral infarction volume was detected by TTC staining, and the brain water content was detected to evaluate the cerebral edema.

Where [4] appears, read: 2.5 mg/kg and 5 mg/kg bid, 48 h after ischemia/reperfusion.

Chain of RIPK1 kinase (Q13546 whole entry): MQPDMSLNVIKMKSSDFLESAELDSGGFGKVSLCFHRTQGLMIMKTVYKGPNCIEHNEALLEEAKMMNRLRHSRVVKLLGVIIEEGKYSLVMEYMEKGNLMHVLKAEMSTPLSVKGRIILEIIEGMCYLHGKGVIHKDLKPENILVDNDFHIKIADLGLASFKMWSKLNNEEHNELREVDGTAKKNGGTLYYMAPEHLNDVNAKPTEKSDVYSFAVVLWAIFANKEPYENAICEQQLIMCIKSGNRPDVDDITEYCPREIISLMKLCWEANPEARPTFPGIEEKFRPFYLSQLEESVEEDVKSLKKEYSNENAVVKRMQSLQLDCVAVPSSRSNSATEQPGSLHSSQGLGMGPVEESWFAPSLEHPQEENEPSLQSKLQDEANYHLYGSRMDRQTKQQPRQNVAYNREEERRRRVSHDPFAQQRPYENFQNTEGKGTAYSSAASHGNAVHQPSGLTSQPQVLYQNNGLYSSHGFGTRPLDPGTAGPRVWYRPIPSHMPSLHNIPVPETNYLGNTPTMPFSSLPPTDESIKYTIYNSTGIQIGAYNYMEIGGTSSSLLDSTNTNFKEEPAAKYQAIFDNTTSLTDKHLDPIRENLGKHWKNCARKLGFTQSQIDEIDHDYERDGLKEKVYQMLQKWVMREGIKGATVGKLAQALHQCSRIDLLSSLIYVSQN

For `Cn1ccc2ccc(C(=O)N3CCC4(CC3)CCN(Cc3cc(F)ccc3F)C4=O)cc21` [Compound 49, 2-(2,5-difluorobenzyl)-8-(1-methyl-1H-indole-6-carbonyl)-2,8-diazaspiro[4.5]decan-1-one], in test [1], the pIC50 is 7.04 and the inhibition at 10 µM is over 50%. The pEC50 in test [2] is 5.95.
For `O=C(c1ccc2cc[nH]c2c1)N1CCC2(CC1)CCN(Cc1ccccc1F)C2=O` [Compound 44, 2-(2-fluorobenzyl)-8-(1H-indole-6-carbonyl)-2,8-diazaspiro[4.5]decan-1-one], in test [1], the negative-log IC50 (pIC50) was 6.73 and the inhibition at 10 µM was over 50%. In addition, in test [2], the negative-log EC50 (pEC50) was 6.79.
On to `O=C(c1ccccc1)N1CCC2(CC1)CCN(Cc1ccccc1F)C2=O` [Compound 31, 8-benzoyl-2-(2-fluorobenzyl)-2,8-diazaspiro[4.5]decan-1-one], for which, in test [1], the pIC50 is 6.73 and the inhibition at 10 µM is over 50%. In addition, the pEC50 in test [2] is 5.98. In addition, in test [3] (setting [4]), the nerve injury score entry was “significantly reduce” and the “water content in the ischemic side” value is on record as “significantly reduce”. In addition, in test [3] (2.5 mg/kg and 5 mg/kg bid, 48 h after ischemia/reperfusion, TTC staining), the infarct volume entry is reported as “significantly reduce”. In addition, the “protective effect on cerebral ischemia injury compared with edaravone” value in test [3] (5 mg/kg bid vs positive control edaravone 5 mg/kg QD) was “stronger protective effect”.
With `Cn1ccc2ccc(C(=O)N3CCC4(CC3)CCN(Cc3ccccc3F)C4=O)cc21` [Compound 50, 2-(2-fluorobenzyl)-8-(1-methyl-1H-indole-6-carbonyl)-2,8-diazaspiro decan-1-one], in test [1], the pIC50 is 6.99 and the inhibition at 10 µM was over 50%. Moreover, in test [2], the pEC50 was 5.81.
For `O=C(c1ccc2cc[nH]c2c1)N1CCC2(CC1)CCN(Cc1cc(F)ccc1F)C2=O` [Compound 46, 2-(2,5-difluorobenzyl)-8-(1H-indole-6-carbonyl)-2,8-diazaspiro[4.5]decan-1-one], in test [1], the pIC50 is 6.20 and the inhibition at 10 µM is over 50%. The pEC50 in test [2] is 5.92.
For `O=C(c1ccccc1)N1CCC2(CC1)CCN(Cc1cc(F)ccc1F)C2=O` [Compound 34, 8-benzoyl-2-(2,5-difluorobenzyl)-2,8-diazaspiro[4.5]decan-1-one], in that order: 6.16, over 50% and 5.87.
